Data as given in patent US12441768B2, “Compositions and methods for treating endometriosis” (EndoMet Biosciences, Inc., priority 2018, dated 2025).
Where a SMILES comes first, the peptide text is derived from it.

What was measured:
[1] = target: T1, β-catenin (Homo sapiens, UniProt P35222); assay: KD50 measurement using competitive fluorescence polarization (FP) with labelled TCF4; format: binding; settings: fluorescence polarization, β-catenin; for Kd: read-out: β-Cat FP KD
T1 sequence (P35222 1-781): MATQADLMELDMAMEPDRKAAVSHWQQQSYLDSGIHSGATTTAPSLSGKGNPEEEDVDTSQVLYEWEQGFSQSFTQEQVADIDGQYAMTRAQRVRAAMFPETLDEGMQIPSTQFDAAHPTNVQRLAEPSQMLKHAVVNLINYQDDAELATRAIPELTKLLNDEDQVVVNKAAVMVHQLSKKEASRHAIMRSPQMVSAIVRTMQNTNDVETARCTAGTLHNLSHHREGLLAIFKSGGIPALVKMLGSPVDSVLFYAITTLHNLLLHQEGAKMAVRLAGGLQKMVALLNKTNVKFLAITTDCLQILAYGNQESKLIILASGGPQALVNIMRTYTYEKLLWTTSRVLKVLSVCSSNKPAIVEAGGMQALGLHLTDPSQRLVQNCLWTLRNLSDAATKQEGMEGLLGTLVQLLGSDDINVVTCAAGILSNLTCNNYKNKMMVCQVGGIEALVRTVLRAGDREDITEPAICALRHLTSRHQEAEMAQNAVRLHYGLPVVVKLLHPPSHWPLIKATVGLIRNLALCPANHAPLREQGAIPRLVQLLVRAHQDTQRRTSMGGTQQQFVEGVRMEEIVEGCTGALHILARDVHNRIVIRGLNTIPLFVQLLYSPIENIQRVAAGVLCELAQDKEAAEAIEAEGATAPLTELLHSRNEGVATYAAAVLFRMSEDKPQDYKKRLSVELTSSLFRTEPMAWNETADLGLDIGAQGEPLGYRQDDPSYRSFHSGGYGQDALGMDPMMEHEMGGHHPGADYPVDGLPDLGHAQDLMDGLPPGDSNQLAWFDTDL
Outline: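 First, β-catenin at 100 nM is mixed with 5 nM labelled TCF4 at room temperature. Next, compound is added across serial dilutions (10 nM to 30 uM). Finally, fluorescence polarization is measured (ex 470 nm, em 520 nm); experiments are done three times.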

[2] = target: Wnt-responsive promoter (TCF/LEF); assay: Wnt-dependent luciferase reporter assay; format: cell-based, murine
Method: The luciferase reporter assay is commonly used as a tool to study gene expression at the transcriptional level. Peptides from libraries described herein were characterized for ability to suppress transcription in cells with luciferase expression controlled by a Wnt-responsive promoter. Peptides were added to cells transfected with luciferase gene downstream of a Wnt-responsive promoter. Cells were stimulated with Wnt3a protein and incubated with peptides from libraries described herein. Luminescence was recorded to determine the peptides with the highest β-catenin-inhibiting activity. EC50 values were calculated based on the inhibition of luminescence and expressed as concentration (uM) in Table 5.
Peptides were assessed for their ability to inhibit Wnt signaling. Murine 3T3 fibroblasts that express luciferase under a Wnt-responsive promoter (TCF/LEF) (Enzo Life Sciences, Farmingdale, NY) were stimulated with Wnt3a in the presence of increasing concentrations of peptide inhibitor (Hit 1: SEQ ID NO:217, Hit 2: SEQ ID NO:224, Hit 3: SEQ ID NO:228, Hit 4: SEQ ID NO:227, Hit 5: SEQ ID NO:220, Hit 6: SEQ ID NO:168. Hit 7: SEQ ID NO:226) or with vehicle control (FIG. 2A).

For `CC[C@H](C)[C@H](NC(=O)[C@H](CO)NC(=O)[C@H](CCC(=O)O)NC(=O)[C@@H]1CCCN1C(=O)[C@H](CC(C)C)NC(=O)[C@H](CCCNC(=N)N)NC(=O)CCNC(C)=O)C(=O)N[C@@H](CC(C)C)C(=O)N[C@@H](CC(=O)O)C(=O)N[C@@H](CCC(=O)O)C(=O)N[C@@H](Cc1c[nH]cn1)C(=O)N[C@H](C(=O)N[C@@H](CCC(N)=O)C(=O)N[C@@H](CCCNC(=N)N)C(=O)N[C@H](C(=O)N[C@@H](Cc1c[nH]c2ccccc12)C(=O)N1CCC[C@H]1C(N)=O)C(C)C)C(C)C` [compound 413] (HELM PEPTIDE1{[ac].[bAla].R.L.P.E.S.I.L.D.E.H.V.Q.R.V.W.P.[am]}$$$$V2.0), the “β-Cat FP Hill slope” value [1] was 0.7, the Kd [1] was < 0.4 µM and the EC50 [2] was > 30 µM.

`CC[C@H](C)[C@H](NC(=O)[C@H](CO)NC(=O)[C@H](CCC(=O)O)NC(=O)[C@H](Cc1c[nH]c2ccccc12)N(C)C(=O)[C@@H](N)Cc1c[nH]c2ccccc12)C(=O)N[C@@H](CC(C)C)C(=O)N[C@@H](CC(=O)O)C(=O)N[C@@H](CCC(=O)O)C(=O)N[C@@H](Cc1c[nH]cn1)C(=O)NC(C)(C(=O)N[C@@H](CCC(N)=O)C(=O)N[C@@H](CCCNC(=N)N)C(=O)N[C@H](C(=O)N[C@@H](Cc1c[nH]c2ccccc12)C(=O)NCC(N)=O)C(C)C)C(C)C` (some centres unmarked) [compound 39] (HELM PEPTIDE1{W.[meW].E.S.I.L.D.E.H.[CC(C)C(C)(N[*:1])C(=O)[*:2]].Q.R.V.W.G.[am]}$$$$V2.0) was tested, and the “β-Cat FP Hill slope” value [1] was 0.89, the Kd [1] was < 0.4 µM and the EC50 [2] was > 30 µM.

With `CC[C@H](C)[C@H](NC(=O)[C@H](CO)NC(=O)[C@H](CCC(=O)O)NC(=O)[C@H](Cc1c[nH]c2ccccc12)N(C)C(=O)[C@@H](N)Cc1c[nH]c2ccccc12)C(=O)N[C@@H](CC(C)C)C(=O)N[C@@H](CC(=O)O)C(=O)N[C@@H](CCC(=O)O)C(=O)N[C@@H](Cc1c[nH]cn1)C(=O)N[C@H](C(=O)N[C@@H](CCC(N)=O)C(=O)N[C@@H](CCCNC(=N)N)C(=O)N[C@H](C(=O)N[C@@H](Cc1c[nH]c2ccccc12)C(=O)NCC(N)=O)C(C)C)C(C)C` [compound 36] (HELM PEPTIDE1{W.[meW].E.S.I.L.D.E.H.V.Q.R.V.W.G.[am]}$$$$V2.0) the “β-Cat FP Hill slope” value [1] was 0.87, the Kd [1] was < 0.4 µM and the EC50 [2] was > 30 µM.

For `CC[C@H](C)[C@H](NC(=O)C(C)(CO)NC(=O)[C@H](CCC(=O)O)NC(=O)[C@H](Cc1c[nH]c2ccccc12)N(C)C(=O)[C@@H](N)Cc1c[nH]c2ccccc12)C(=O)N[C@@H](CC(C)C)C(=O)N[C@@H](CC(=O)O)C(=O)N[C@@H](CCC(=O)O)C(=O)N[C@@H](Cc1c[nH]cn1)C(=O)N[C@H](C(=O)N[C@@H](CCC(N)=O)C(=O)N[C@@H](CCCNC(=N)N)C(=O)N[C@H](C(=O)N[C@@H](Cc1c[nH]c2ccccc12)C(=O)NCC(N)=O)C(C)C)C(C)C` (some centres unmarked) [compound 40] (HELM PEPTIDE1{W.[meW].E.[CC(CO)(N[*:1])C(=O)[*:2]].I.L.D.E.H.V.Q.R.V.W.G.[am]}$$$$V2.0), the “β-Cat FP Hill slope” value [1] was 0.88, the Kd [1] was < 0.4 µM and the EC50 [2] was > 30 µM.

In the case of `CC[C@H](C)[C@@H]1NC(=O)[C@@H](NC(=O)[C@H](CCC(N)=O)NC(=O)[C@@H]2CCCN2C(=O)[C@H](Cc2c[nH]c3ccccc23)NC(=O)[C@H](CCCNC(=N)N)NC(C)=O)CCCCNC(=O)CC[C@@H](C(=O)N[C@@H](Cc2c[nH]cn2)C(=O)N[C@H](C(=O)N[C@@H](CCCNC(=N)N)C(=O)N[C@@H](CCCNC(=N)N)C(=O)N[C@H](C(=O)N[C@@H](Cc2c[nH]c3ccccc23)C(=O)N[C@@H](CCCNC(=N)N)C(N)=O)C(C)C)C(C)C)NC(=O)[C@H](CC(=O)O)NC(=O)[C@H](CC(C)C)NC1=O` [compound 428] (HELM PEPTIDE1{[ac].R.W.P.Q.K.I.L.D.E.H.V.R.R.V.W.R.[am]}$PEPTIDE1,PEPTIDE1,6:R3-10:R3$$$V2.0), the “β-Cat FP Hill slope” value [1] is reported as 0.94, the Kd [1] is reported as < 0.4 µM and the EC50 [2] is reported as > 30 µM.

`CC[C@H](C)[C@@H]1NC(=O)[C@@H](NC(=O)[C@H](CCC(N)=O)NC(=O)[C@H](C)N(C)C(=O)[C@H](Cc2c[nH]c3ccccc23)NC(C)=O)CCCCNC(=O)CC[C@@H](C(=O)N[C@@H](Cc2c[nH]cn2)C(=O)N[C@H](C(=O)N[C@@H](CCC(N)=O)C(=O)N[C@@H](CCCNC(=N)N)C(=O)N[C@H](C(=O)N[C@@H](Cc2c[nH]c3ccccc23)C(=O)NCC(N)=O)C(C)C)C(C)C)NC(=O)[C@H](CC(=O)O)NC(=O)[C@H](CC(C)C)NC1=O` [compound 402] (HELM PEPTIDE1{[ac].W.[meA].Q.K.I.L.D.E.H.V.Q.R.V.W.G.[am]}$PEPTIDE1,PEPTIDE1,5:R3-9:R3$$$V2.0) was tested, and the “β-Cat FP Hill slope” value [1] was 0.7, the Kd [1] was < 0.4 µM and the EC50 [2] was > 30 µM.

With `CC[C@H](C)[C@@H]1NC(=O)[C@@H](NC(=O)[C@H](CCC(N)=O)NC(=O)[C@H](C)N(C)C(C)=O)CCCCNC(=O)CC[C@@H](C(=O)N[C@@H](Cc2c[nH]cn2)C(=O)N[C@H](C(=O)N[C@@H](CCC(N)=O)C(=O)N[C@@H](CCCNC(=N)N)C(=O)N[C@H](C(=O)N[C@@H](Cc2c[nH]c3ccccc23)C(N)=O)C(C)C)C2CCCCC2)NC(=O)[C@H](CC(=O)O)NC(=O)[C@H](CC(C)C)NC1=O` [compound 445] (HELM PEPTIDE1{[ac].[meA].Q.K.I.L.D.E.H.[O=C([C@@H](N[*:1])C1CCCCC1)[*:2]].Q.R.V.W.[am]}$PEPTIDE1,PEPTIDE1,4:R3-8:R3$$$V2.0) the “β-Cat FP Hill slope” value [1] was 0.7, the Kd [1] was < 0.4 µM and the EC50 [2] was 22.5 to 30 µM.

In the case of `CC[C@H](C)[C@@H]1NC(=O)[C@@H](NC(=O)[C@H](CCC(N)=O)NC(=O)[C@H](C)N(C)C(=O)[C@@H](N)Cc2c[nH]c3ccccc23)CCCCNC(=O)CC[C@@H](C(=O)N[C@@H](Cc2c[nH]cn2)C(=O)N[C@H](C(=O)N[C@@H](CCC(N)=O)C(=O)N[C@@H](CCCNC(=N)N)C(=O)N[C@H](C(=O)N[C@@H](Cc2c[nH]c3ccccc23)C(=O)NCC(N)=O)C(C)C)C2CCCCC2)NC(=O)[C@H](CC(=O)O)NC(=O)[C@H](CC(C)C)NC1=O` [compound 403] (HELM PEPTIDE1{W.[meA].Q.K.I.L.D.E.H.[O=C([C@@H](N[*:1])C1CCCCC1)[*:2]].Q.R.V.W.G.[am]}$PEPTIDE1,PEPTIDE1,4:R3-8:R3$$$V2.0), the “β-Cat FP Hill slope” value [1] is reported as 0.76, the Kd [1] is reported as < 0.4 µM and the EC50 [2] is reported as > 30 µM.

With `CC[C@H](C)[C@@H]1NC(=O)[C@@H](NC(=O)[C@H](CCC(N)=O)NC(=O)[C@H](C)N(C)C(C)=O)CCCCNC(=O)CC[C@@H](C(=O)N[C@@H](Cc2c[nH]cn2)C(=O)N[C@H](C(=O)N[C@@H](CCC(N)=O)C(=O)N[C@@H](CCCNC(=N)N)C(=O)N[C@H](C(=O)N[C@@H](Cc2c[nH]c3ccccc23)C(=O)N[C@@H](CCCNC(=N)N)C(N)=O)C(C)C)C2CCCCC2)NC(=O)[C@H](CC(=O)O)NC(=O)[C@H](CC(C)C)NC1=O` [compound 448] (HELM PEPTIDE1{[ac].[meA].Q.K.I.L.D.E.H.[O=C([C@@H](N[*:1])C1CCCCC1)[*:2]].Q.R.V.W.R.[am]}$PEPTIDE1,PEPTIDE1,4:R3-8:R3$$$V2.0) the “β-Cat FP Hill slope” value [1] was 0.7, the Kd [1] was < 0.4 µM and the EC50 [2] was > 30 µM.

For `CC[C@H](C)[C@@H]1NC(=O)[C@@H](NC(=O)[C@H](CCC(N)=O)NC(=O)[C@H](C)N(C)C(=O)[C@H](Cc2c[nH]c3ccccc23)NC(C)=O)CCCCNC(=O)C[C@@H](C(=O)N[C@@H](Cc2c[nH]cn2)C(=O)N[C@H](C(=O)N[C@@H](CCC(N)=O)C(=O)N[C@@H](CCCNC(=N)N)C(=O)N[C@H](C(=O)N[C@@H](Cc2c[nH]c3ccccc23)C(=O)NCC(N)=O)C(C)C)C2CCCCC2)NC(=O)[C@H](CC(=O)O)NC(=O)[C@H](CC(C)C)NC1=O` [compound 430] (HELM PEPTIDE1{[ac].W.[meA].Q.K.I.L.D.D.H.[O=C([C@@H](N[*:1])C1CCCCC1)[*:2]].Q.R.V.W.G.[am]}$PEPTIDE1,PEPTIDE1,5:R3-9:R3$$$V2.0), the “β-Cat FP Hill slope” value [1] was 1.75, the Kd [1] was < 0.4 µM and the EC50 [2] was 15 to 22.5 µM.

With `CC[C@H](C)[C@H]1NC(=O)[C@@H](CO)NC(=O)[C@@H](CCC(=O)O)NC(=O)[C@H](Cc2c[nH]c3ccccc23)NC(=O)CCCCn2cc(nn2)CC(C(N)=O)NC(=O)[C@H](Cc2c[nH]c3ccccc23)NC(=O)[C@H](C(C)C)NC(=O)[C@H](CCCNC(=N)N)NC(=O)[C@@H](CCC(N)=O)NC(=O)[C@@H](C(C)C)NC(=O)[C@@H](Cc2cnc[nH]2)NC(=O)[C@H](CCC(=O)O)NC(=O)[C@H](CC(=O)O)NC(=O)[C@H](CC(C)C)NC1=O` (some centres unmarked) [compound 33] the Kd [1] was > 30 µM and the EC50 [2] was > 30 µM.
